Values quoted from earlier work as cited in patent publication US10300017B2, “Method and composition for treating cystitis” (Nanologix Research, Inc., priority 2012, dated 2019).

Legend:
[1] = tested on: interstitial cystitis; details: 20 patients heparin 40,000 units, 20 patients 100 mg Elmiron, 80 mg lidocaine, 3 cc sodium bicarb
[2] = oral

fraction absorbed that reaches the circulation (administered orally) [%] | fraction of the administered dose recovered as intact drug in urine (mean) (oral dose) [%] | mean of an oral dose excreted in the urine (oral dose, mostly as desulfated and depolymerized metabolites) [%] | Substance | response to therapy (symptom relief), comparison of the two intravesical solutions [1] | systemic side effects [2]
– | – | – | heparin | no significant difference between the two solutions | –
6 | 0.14 | 6 | pentosan polysulfate [Elmiron®] | no significant difference between the two solutions | hair loss, GI intolerance, headache, rash, sleep disturbance, and vertigo
